Values quoted from earlier work in paper PMC5931107, “Clinical pharmacodynamic/exposure characterisation of the multikinase inhibitor ilorasertib (ABT-348) in a phase 1 dose-escalation trial” (British Journal of Cancer, 2018).

Tested on: VEGFR2
Design: method as in PMID 22935731
Conditions: 1 mM ATP; read-out: Biochemical IC50 (95% confidence limits); cited from earlier work

With Nc1ncc(-c2cnn(CCO)c2)c2scc(-c3ccc(NC(=O)Nc4cccc(F)c4)cc3)c12 [ilorasertib, Ilorasertib] as the compound, how does the IC50 read?
Its IC50 is 2 nM.
